Data as given in ChEMBL document CHEMBL1148074, “Thalifaberidine, a cytotoxic aporphine-benzylisoquinoline alkaloid from Thalictrum faberi” (J Nat Prod, 1994).
Converted amounts (≈) assume the structure as drawn. The source made the active and inactive calls. No cut-off for these calls is given here.

What was measured:
[1] = Selectivity index, ratio of ED50 for human KB cells to ED50 for chloroquine-resistant Plasmodium falciparum W2; format: toxicity, cell-based; details: read-out: Selectivity Index
Plasmodium falciparum [2] = test: Antimalarial activity against chloroquine-sensitive Plasmodium falciparum D6 infected human erythrocytes after 24 hrs by [3H]hypoxanthine uptake; format: functional; details: read-out: ED50 (the source's name)
[3] = Selectivity index, ratio of ED50 for human KB cells to ED50 for chloroquine-sensitive Plasmodium falciparum D6; format: toxicity, cell-based; details: read-out: Selectivity Index
Plasmodium falciparum [4] = test: Antimalarial activity against chloroquine-resistant Plasmodium falciparum W2 infected human erythrocytes after 24 hrs by [3H]hypoxanthine uptake; format: functional; details: read-out: ED50 (the source's name)
A-431 = test: Cytotoxicity against human A431 cells after 3 days by SRB assay; format: functional; details: A-431, 72 h, read-out: ED50 (the source's name)
[5] = Cytotoxicity against human U373 cells after 3 days by SRB assay; format: functional, U-373MG ATCC; details: U373 MG, 72 h, read-out: ED50 (the source's name)
HT-1080 = test: Cytotoxicity against human HT1080 cells after 3 days by SRB assay; format: functional; details: HT-1080, 72 h, read-out: ED50 (the source's name)
[6] = Cytotoxicity against human BCA1 cells after 3 days by SRB assay; format: functional; details: BCA1, 72 h, read-out: ED50 (the source's name)
LNCaP = test: Cytotoxicity against human LNCAP cells after 3 days by SRB assay; format: functional; details: 72 h, read-out: ED50 (the source's name)
[7] = target: Human immunodeficiency virus type 1 reverse transcriptase (Human immunodeficiency virus 1) (UniProt Q72547); test: Inhibition of HIV1 reverse transcriptase
Col2 = test: Cytotoxicity against human Col2 cells after 3 days by SRB assay; format: functional; details: Col2, 72 h, read-out: ED50 (the source's name)
KB = test: Cytotoxicity against human KB cells after 3 days by SRB assay; format: functional; details: 72 h, read-out: ED50 (the source's name)
[8] = Cytotoxicity against human KBVIN cells after 3 days by SRB assay; format: functional; details: 72 h, read-out: ED50 (the source's name)
Lu1 = test: Cytotoxicity against human Lu1 cells after 3 days by SRB assay; format: functional; details: Lu1, 72 h, read-out: ED50 (the source's name)
ZR-75-1 = test: Cytotoxicity against human ZR-75-1 cells after 3 days by SRB assay; format: functional; details: ZR-75-1, 72 h, read-out: ED50 (the source's name)
P388 = test: Cytotoxicity against mouse P388 cells after 3 days by SRB assay; format: functional; details: P388, 72 h, read-out: ED50 (the source's name)
[9] = Cytotoxicity against human KBVIN cells in presence of 1 ug/ml vinblastine after 3 days by SRB assay; format: functional; details: 72 h, read-out: ED50 (the source's name)

SMILES	selectivity ratio [1]	EC50 (Plasmodium falciparum [2]) [µg/mL]	selectivity ratio [3]	EC50 (Plasmodium falciparum [4]) [µg/mL]	EC50 (A-431) [µg/mL]	EC50 [5] [µg/mL]	EC50 (HT-1080) [µg/mL]	EC50 [6] [µg/mL]	EC50 (LNCaP) [µg/mL]	Activity [7]	EC50 (Col2) [µg/mL]	EC50 (KB) [µg/mL]	EC50 [8] [µg/mL]	EC50 (Lu1) [µg/mL]	EC50 (ZR-75-1) [µg/mL]	EC50 (P388) [µg/mL]	EC50 [9] [µg/mL]
C[C@@H]1CC[C@H]2[C@@H](C)C(=O)O[C@@H]3O[C@@]4(C)CC[C@@H]1[C@]32OO4 [ARTEMISININ]	> 50000	0.0011 (≈ 0.0039 µM)	> 1820	0.0004 (≈ 0.00142 µM)													
CCN(CC)CCCC(C)Nc1ccnc2cc(Cl)ccc12 (centres undefined) [CHLOROQUINE]		0.0035 (≈ 0.0109 µM)															
OC(c1cc(C(F)(F)F)nc2c(C(F)(F)F)cccc12)C1CCCCN1 (centres undefined) [MEFLOQUINE]	1840	0.0089 (≈ 0.0235 µM)	393	0.0019 (≈ 0.00502 µM)													
C=C[C@H]1CN2CC[C@H]1C[C@H]2[C@H](O)c1ccnc2ccc(OC)cc12 [QUININE]	> 340	0.0208 (≈ 0.0641 µM)	> 960	0.0592 (≈ 0.182 µM)													
COc1cc2c(cc1O)CCN(C)[C@H]2Cc1ccc(Oc2c(O)c(OC)cc3c2C[C@H]2c4c(c(OC)c(OC)c(OC)c4-3)CCN2C)cc1 [THALIFABERIDINE]	47	0.88 (≈ 1.32 µM)	6.5	0.122 (≈ 0.182 µM)	6.7 (≈ 10 µM)	1.5 (≈ 2.24 µM)	3.1 (≈ 4.64 µM)	3.9 (≈ 5.83 µM)	3.7 (≈ 5.53 µM)	inactive	3.2 (≈ 4.78 µM)	5.7 (≈ 8.52 µM)	7.8 (≈ 11.7 µM)	5.4 (≈ 8.07 µM)	1.5 (≈ 2.24 µM)	0.6 (≈ 0.897 µM)	17.7
COc1cc2c(cc1OC)[C@H](Cc1ccc(Oc3c4c(cc(OC)c3OC)-c3c(OC)c(OC)c(OC)c5c3[C@H](C4)N(C)CC5)cc1)N(C)CC2 [THALIFABERINE]	35	5.09 (≈ 7.3 µM)	3	0.441 (≈ 0.633 µM)	4.9 (≈ 7.03 µM)	4.1 (≈ 5.88 µM)	2.6 (≈ 3.73 µM)	5.4 (≈ 7.75 µM)	5.7 (≈ 8.18 µM)	inactive	1.6 (≈ 2.3 µM)	15.5 (≈ 22.2 µM)	1.2 (≈ 1.72 µM)	16.3 (≈ 23.4 µM)	3.7 (≈ 5.31 µM)	1.3 (≈ 1.87 µM)	4.6
COc1cc2c(c(O)c1OC)CCN(C)[C@H]2Cc1ccc(Oc2c3c(cc(OC)c2OC)-c2c(OC)c(OC)c(O)c4c2[C@H](C3)N(C)CC4)cc1 [THALIFASINE]	93	0.238 (≈ 0.341 µM)	19	0.0493 (≈ 0.0705 µM)	8.2 (≈ 11.7 µM)	2.2 (≈ 3.15 µM)	1.3 (≈ 1.86 µM)	2.4 (≈ 3.43 µM)	3.3 (≈ 4.72 µM)	inactive	2.1 (≈ 3.01 µM)	4.6 (≈ 6.58 µM)	1.6 (≈ 2.29 µM)	2 (≈ 2.86 µM)	1.2 (≈ 1.72 µM)	1.2 (≈ 1.72 µM)	5.7
